The results in this text go back to patent US20110009351A1, “SCREENING ASSAY TO IDENTIFY CORRECTORS OF PROTEIN TRAFFICKING DEFECTS” (Traffick Therepeutics Inc., priority 2007, published 2011).

Assay [1] deals with T1, F508del CFTR (Homo sapiens, UniProt P13569, DEL508-508).
T1 construct: expressed in transfected cells; host or cells: HEK293 Griptite cells stably expressing F508del CFTR, transiently transfected with halide-sensitive eYFP
Nature of the assay: YFP fluorescence quenching functional assay (iodide influx), HEK293 cells with F508del CFTR and halide sensitive YFP. It is filed as cell-based. Conditions: for remaining activity at 10 µM: HEK293, read-out: % YFP quench; for remaining activity at 10 µM / % YFP quench: nc = 100% pc = 69.2. Here is the method: In addition to the MDS compounds, the 1120 Prestwick Library compounds were screened. (See FIGS. 7 to 12.) Of the compounds, one qualified as a “strong” hit, 3 as “medium” hits and 57 as “weak” hits. The Z score for the assay was 0.62. The top 50 hits were further tested in a counter screen in which the halide sensitive fluorescent compound (YFP) was expressed inside cells (Table 2). After incubation with the test compounds the ability of the cells to uptake iodide was measure by decreasing YFP fluorescence. In these cells this can only occur if functional CFTR is present at the cell surface (FIG. 7). The hits were also tested for the appearance of the Band C form of CFTR. […] The functionality of the compounds was further studied by the use of Iodide efflux assays for each compound in both BHK and the more physiologically relevant CFBE cells. […] FIG. 10 is a table of results for the 15 hit compounds which summarizes many experiments. […] The results for the best 15 compounds from the Prestwick Library, or “Prestwick 15”, are shown FIGS. 8, 9 and 10.
Strongly adhesive Human […] Kidney cells stably expressing both the human macrophage scavenger receptor (HEK293 Griptite, Invitrogen) and F508del CFTR were plated in 96-well plates and transiently transfected with pcDNA3 plasmid encoding a halide sensitive variant of eYFP. After 24-48 h later cells were exposed to 10 μM test compound in triplicate and incubated for an additional 24 h. Cells were stimulated for 20 minutes with a in a buffer containing 25 μM forskolin, 45 μM IBMX and 50 μM genistein final concentration. The high content screening assay was performed using a Cellomics platform. Iodide was added robotically to a final concentration of 50 mM and the resulting decrease in fluorescence was measured. Images were taken at time 0 and stored for subsequent use when calculating a mask so that only those cells that express YFP at time 0 are measured. The quenching was detected in 15 images taken over the course of an experiment lasting 40 seconds. Each test compound was compared to the following two controls: a negative control without drugs to assess photobleaching that may occur when the same field of view is repeatedly imaged, and a positive control with cells treated with a known potentiator. Results were generated from 150-300 cells per well.

Assay [2] has as its target ΔF508-CFTR (Homo sapiens, UniProt P13569, DEL508-508). It is filed as cell-based. On the set-up: which was then ligated into full length pNUT-CFTR linearized using Hpa1 and Pml1; expressed in transfected cells. Conditions: Prestwick library, initial corrector assay; for hit in screen (class letter): BHK cells; for hit in screen (score): standard deviations above untreated controls. The procedure:
BHK cells expressing 3HA-tagged ΔF508-CFTR between passages 5-8 were seeded in 96-well plates (Corning half area, black-sided, clear bottom) at 15,000 cells per well and incubated with culture medium for 24 h at 37° C. Each well was then treated with a different test compound (80 compounds per plate) for 24 h at 20 μM final concentration. The remaining 16 wells on each plate were used for control conditions. […] Cells were fixed in a 4% paraformaldehyde solution, washed with PBS, and blocked with PBS containing 5% fetal bovine serum (FBS) for 1 hat 4° C.
Blocking solution was replaced with 15 μl of primary antibody solution containing 1% FBS and mouse monoclonal anti-HA antibody (1:150 dilution, Sigma) in PBS. The plates were sealed and left at 4° C. overnight. After three washes with 100 μl PBS, cells were incubated for 1 h with 15 μl of secondary antibody solution containing 1% FBS and anti-mouse IgG conjugated with FITC (1:100 dilution, Sigma) in PBS. Cells were again washed three times with 100 μl of PBS and analyzed in a plate reader (Analyst™ HT96.384, Biosystems; 488 nm excitation/510 nm emission). […] The mean fluorescence of four untreated wells was used as the background signal when calculating deviations of the 80 compound-treated wells. Hits were then cherry-picked into reservoir plates and re-tested in duplicate using the same assay.
BHK cells expressing ΔF508-CFTR were incubated with test compounds (20 μM) for 24 hours at 37° C. in a 96 well format. Plasma membrane expression of ΔF508-CFTR was then assayed by immunofluorescence using a primary antibody directed against the inserted 3HA tag and a secondary antibody conjugated with a fluorophore (FITC). […] The positive compounds were selected and retested in duplicate to obtain an N of 3. At the re-screening stage, the intrinsic fluorescence of each potential hit was also measured and the fluorescent ones were not considered further.
Screening was performed using BHK cells that stably express F508-CFTR bearing three tandem haemagglutinin-epitope tags (3HA) and linker sequences in the fourth extracellular loop after amino acid 901 (Howard et al., 1995; Carlile et al., 2007; Robert et al., 2008). […] Screening was performed using the Prestwick Chemical Library of 1120 high-purity compounds.

Where a name gives a salt, the structure may show the parent alone.

Chain of ΔF508-CFTR (P13569 with tags, fused parts or gaps DEL508-508): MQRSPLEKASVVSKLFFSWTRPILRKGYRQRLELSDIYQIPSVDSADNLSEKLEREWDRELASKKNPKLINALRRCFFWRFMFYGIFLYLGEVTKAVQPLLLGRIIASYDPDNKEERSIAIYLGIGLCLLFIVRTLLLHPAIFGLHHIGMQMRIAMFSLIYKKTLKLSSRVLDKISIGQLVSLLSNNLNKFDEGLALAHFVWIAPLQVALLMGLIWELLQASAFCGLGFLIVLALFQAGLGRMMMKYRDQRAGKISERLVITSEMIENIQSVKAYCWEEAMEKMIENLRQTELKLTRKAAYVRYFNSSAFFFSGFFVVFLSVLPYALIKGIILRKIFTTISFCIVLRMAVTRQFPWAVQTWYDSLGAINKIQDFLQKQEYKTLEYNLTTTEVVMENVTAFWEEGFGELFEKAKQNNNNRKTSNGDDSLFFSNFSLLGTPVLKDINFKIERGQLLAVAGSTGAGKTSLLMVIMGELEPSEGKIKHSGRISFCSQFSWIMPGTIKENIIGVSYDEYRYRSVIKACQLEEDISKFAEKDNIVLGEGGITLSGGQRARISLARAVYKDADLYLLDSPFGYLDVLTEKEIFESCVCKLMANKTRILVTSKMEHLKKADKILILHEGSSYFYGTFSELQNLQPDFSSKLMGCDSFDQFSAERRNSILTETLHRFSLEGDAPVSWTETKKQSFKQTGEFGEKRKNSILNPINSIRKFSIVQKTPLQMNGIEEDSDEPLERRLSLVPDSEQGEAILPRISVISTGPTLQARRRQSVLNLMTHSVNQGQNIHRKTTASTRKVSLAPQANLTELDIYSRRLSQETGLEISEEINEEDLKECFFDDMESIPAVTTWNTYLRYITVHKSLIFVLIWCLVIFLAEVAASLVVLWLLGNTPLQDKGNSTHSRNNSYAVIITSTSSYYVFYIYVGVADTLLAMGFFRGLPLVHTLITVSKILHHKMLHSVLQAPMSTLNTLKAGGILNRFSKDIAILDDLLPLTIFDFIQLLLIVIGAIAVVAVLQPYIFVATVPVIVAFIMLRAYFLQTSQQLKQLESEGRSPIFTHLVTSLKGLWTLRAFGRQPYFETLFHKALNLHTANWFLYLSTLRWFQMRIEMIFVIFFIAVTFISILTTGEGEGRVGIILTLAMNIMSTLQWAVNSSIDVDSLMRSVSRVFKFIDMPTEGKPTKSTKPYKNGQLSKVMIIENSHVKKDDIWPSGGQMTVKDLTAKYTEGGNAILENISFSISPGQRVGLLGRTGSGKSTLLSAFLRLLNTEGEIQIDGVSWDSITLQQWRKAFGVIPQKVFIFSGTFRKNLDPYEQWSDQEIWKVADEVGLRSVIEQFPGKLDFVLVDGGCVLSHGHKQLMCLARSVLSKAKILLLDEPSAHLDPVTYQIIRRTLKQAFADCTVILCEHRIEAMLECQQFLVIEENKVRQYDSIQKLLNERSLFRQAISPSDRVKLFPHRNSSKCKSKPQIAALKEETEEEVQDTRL
T1 sequence (P13569 with tags, fused parts or gaps DEL508-508): as above

As for `CC(C(=O)O)c1ccc(-c2ccccc2)c(F)c1` (stereo not shown) [Flubiprofen], the remaining activity at 10 µM in assay [1] (10 μM, 24 h) was found to be 98%. Moreover, in assay [2], the “hit in screen (class letter)” value is “W (Medium and weak hits were defined as compounds giving a cell fluorescence signal that was between 2 and 3 or 1 and 2 standard deviations, respectively, above untreated control wells)”; the “hit in screen (score)” value is recorded as 1.0.
In the case of `C[C@]12C[C@H](O)[C@H]3[C@@H](CCC4=CC(=O)CC[C@@]43C)[C@@H]1CC[C@@H]2C(=O)CO` [Corticosterone], the remaining activity at 10 µM in assay [1] (10 μM, 24 h) amounted to 90%. Also, in assay [2], the “hit in screen (class letter)” value was “W (Medium and weak hits were defined as compounds giving a cell fluorescence signal that was between 2 and 3 or 1 and 2 standard deviations, respectively, above untreated control wells)”; the “hit in screen (score)” value was found to be 1.1.
As to `Cc1scc2c1N(C(=O)CN1CCN(C)CC1)c1ccccc1NC2=O` [Telenzepine dihydrochloride], the remaining activity at 10 µM in assay [1] (10 μM, 24 h) is 85%. For the same molecule, in assay [2], the “hit in screen (class letter)” value is “W (Medium and weak hits were defined as compounds giving a cell fluorescence signal that was between 2 and 3 or 1 and 2 standard deviations, respectively, above untreated control wells)”; the “hit in screen (score)” value is given as 1.3.
For the molecule `CC(C)(C(=O)c1cccnc1)c1cccnc1` [Metyrapone], the remaining activity at 10 µM in assay [1] (10 μM, 24 h) worked out at 98%. In addition, in assay [2], the “hit in screen (class letter)” value is “W (Medium and weak hits were defined as compounds giving a cell fluorescence signal that was between 2 and 3 or 1 and 2 standard deviations, respectively, above untreated control wells)”; the “hit in screen (score)” value is 1.4.
With `c1ccc2c(c1)OCC(C1=NCCN1)O2` (stereo not shown) [Idazoxan hydrochloride], in assay [1] (10 μM, 24 h), the remaining activity at 10 µM was found to be 103%. Also, in assay [2], the “hit in screen (class letter)” value is “W (Medium and weak hits were defined as compounds giving a cell fluorescence signal that was between 2 and 3 or 1 and 2 standard deviations, respectively, above untreated control wells)”; the “hit in screen (score)” value turned out to be 1.0.
Take `Nc1ncnc2c1ncn2[C@@H]1O[C@H](COP(=O)(O)O)[C@@H](O)[C@H]1O.O` [Adenosine 5′-monophosphate monohydrate]: the remaining activity at 10 µM in assay [1] (10 μM, 24 h) came to 78%. In assay [2], the “hit in screen (class letter)” value was “W (Medium and weak hits were defined as compounds giving a cell fluorescence signal that was between 2 and 3 or 1 and 2 standard deviations, respectively, above untreated control wells)”; the “hit in screen (score)” value is 1.1.
Consider `Cc1oncc1C(=O)Nc1ccc(C(F)(F)F)cc1` [Leflunomide], for which the remaining activity at 10 µM in assay [1] (10 μM, 24 h) is 107%. Moreover, in assay [2], the “hit in screen (class letter)” value was “W (Medium and weak hits were defined as compounds giving a cell fluorescence signal that was between 2 and 3 or 1 and 2 standard deviations, respectively, above untreated control wells)”; the “hit in screen (score)” value is 1.0.
Turning to `CC(C)(C)NCC(O)c1ccc(O)c(CO)c1` (stereo not shown) [Salbutamol], the remaining activity at 10 µM in assay [1] (10 μM, 24 h) is 97%. Moreover, in assay [2], the “hit in screen (class letter)” value is “W (Medium and weak hits were defined as compounds giving a cell fluorescence signal that was between 2 and 3 or 1 and 2 standard deviations, respectively, above untreated control wells)”; the “hit in screen (score)” value is on record as 1.0.
For `CC(=O)c1ccc(S(=O)(=O)NC(=O)NC2CCCCC2)cc1` [Acetohexamide], in assay [1] (10 μM, 24 h), the remaining activity at 10 µM worked out at 88%. In addition, in assay [2], the “hit in screen (class letter)” value was “W (Medium and weak hits were defined as compounds giving a cell fluorescence signal that was between 2 and 3 or 1 and 2 standard deviations, respectively, above untreated control wells)”; the “hit in screen (score)” value amounted to 1.0.
As for `CCN(CC)C(=O)N1CCN(C)CC1` [Diethylcarbamazine citrate], the remaining activity at 10 µM in assay [1] (10 μM, 24 h) was determined as 907%. For the same molecule, in assay [2], the “hit in screen (class letter)” value is “W (Medium and weak hits were defined as compounds giving a cell fluorescence signal that was between 2 and 3 or 1 and 2 standard deviations, respectively, above untreated control wells)”; the “hit in screen (score)” value was 1.2.
In the case of Terbutaline hemisulfate, the “% YFP quench” value in assay [1] (10 μM, 24 h) amounted to 100%. In addition, in assay [2], the “hit in screen (class letter)” value was “W (Medium and weak hits were defined as compounds giving a cell fluorescence signal that was between 2 and 3 or 1 and 2 standard deviations, respectively, above untreated control wells)”; the “hit in screen (score)” value is 1.3.
Consider `OCC(O)CN1CCN(c2ccccc2)CC1` (racemic) [Dropropizine (R, S)], for which the “% YFP quench” value in assay [1] (10 μM, 24 h) is listed as 92%. Moreover, in assay [2], the “hit in screen (class letter)” value is “W (Medium and weak hits were defined as compounds giving a cell fluorescence signal that was between 2 and 3 or 1 and 2 standard deviations, respectively, above untreated control wells)”; the “hit in screen (score)” value is 1.2.
Regarding `COc1cc(C)nc(-n2nc(C)cc2OC)n1` [Epirizole], the “Bart's scores” value in assay [1] (Functional assay, Prestwick compounds, positive tests / tests) is listed as 0/5. Also, the remaining activity at 10 µM in assay [1] (10 μM, 24 h) was 115%. In addition, in assay [2], the “hit in screen (class letter)” value is “W (Medium and weak hits were defined as compounds giving a cell fluorescence signal that was between 2 and 3 or 1 and 2 standard deviations, respectively, above untreated control wells)”; the “hit in screen (score)” value is on record as 1.3.
As to Cyanocobalamin, in assay [1] (10 μM, 24 h), the “functional correction in YFP quenching assay” value is listed as “not functional” and the “% YFP quench” value is 100%. Moreover, in assay [2], the “hit in screen (class letter)” value was “W (Medium and weak hits were defined as compounds giving a cell fluorescence signal that was between 2 and 3 or 1 and 2 standard deviations, respectively, above untreated control wells)”; the “hit in screen (score)” value is 1.1.
Consider `C#CCN(C)CCCOc1ccc(Cl)cc1Cl` [Clorgyline hydrochloride], for which the remaining activity at 10 µM in assay [1] (10 μM, 24 h) is 77%. Further, in assay [2], the “hit in screen (class letter)” value was “W (Medium and weak hits were defined as compounds giving a cell fluorescence signal that was between 2 and 3 or 1 and 2 standard deviations, respectively, above untreated control wells)”; the “hit in screen (score)” value is recorded as 1.0.
Regarding `Cc1cc(N)c2ccccc2[n+]1CCCCCCCCCC[n+]1c(C)cc(N)c2ccccc21.[Cl-].[Cl-]` [Dequalinlum dichloride], the “% YFP quench” value in assay [1] (10 μM, 24 h) came out at 102%. Besides, in assay [2], the “hit in screen (class letter)” value was “M (Medium and weak hits were defined as compounds giving a cell fluorescence signal that was between 2 and 3 or 1 and 2 standard deviations, respectively, above untreated control wells)”; the “hit in screen (score)” value amounted to 2.2.
Take `Clc1ccc(Cn2c(CN3CCCC3)nc3ccccc32)cc1` [Clemizole hydrochloride]: the remaining activity at 10 µM in assay [1] (10 μM, 24 h) was 84%. Also, in assay [2], the “hit in screen (class letter)” value is “W (Medium and weak hits were defined as compounds giving a cell fluorescence signal that was between 2 and 3 or 1 and 2 standard deviations, respectively, above untreated control wells)”; the “hit in screen (score)” value was 1.5.
Consider `CC(C)Cc1ccc([C@H](C)C(=O)O)cc1` [S-(+)-Ibuorofen], for which, in assay [1] (10 μM, 24 h), the “% YFP quench” value is given as 91%. Moreover, in assay [2], the “hit in screen (score)” value stood at 1.1.
